From PubChem BioAssay AID330 (DTP/NCI, 2004)
Values joined by “and” are separate entries in the source; they are usually repeats but may differ in a detail not shown here. Equal entries are not always repeated. Toxic doses and inconclusive results are not listed. How the source made its calls: active means survival T/C of 150% or more; inactive means T/C below 125% in these data.

Tested on: P388 leukemia ip, CD2F1 mice, survival T/C
Experiment: NCI In Vivo Anticancer Drug Screen. Data for tumor model P388 Leukemia (intraperitoneal) in CD2F1 (CDF1) mice
Conditions: endpoint: median survival time, higher = longer survival
Summary of the method: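 Mice carrying the transplanted tumor received test compound or vehicle. Survival was recorded in each group, and the value is the treated-group measurement divided by that of the vehicle-treated control group.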

[1] = dose: 15.0 mg/kg/injection, schedule: Q01DX005 (ip), vehicle: Klucel (hydroxypropylcellulose) (HPC)
[2] = dose: 25.0 mg/kg/injection, schedule: Q01DX005 (ip), vehicle: saline with Tween-80
[3] = dose: 100.0 mg/kg/injection, schedule: Q01DX005 (ip), vehicle: saline with Tween-80
[4] = dose: 200.0 mg/kg/injection, schedule: Q01DX005 (ip), vehicle: saline with Tween-80
[5] = dose: 50.0 mg/kg/injection, schedule: Q01DX009 (ip), vehicle: Klucel (hydroxypropylcellulose) (HPC)
[6] = dose: 100.0 mg/kg/injection, schedule: Q01DX009 (ip), vehicle: Klucel (hydroxypropylcellulose) (HPC)
[7] = dose: 200.0 mg/kg/injection, schedule: Q01DX009 (ip), vehicle: Klucel (hydroxypropylcellulose) (HPC)
[8] = dose: 60.0 mg/kg/injection, schedule: Q01DX005 (ip), vehicle: saline
[9] = dose: 120.0 mg/kg/injection, schedule: Q01DX005 (ip), vehicle: saline
[10] = dose: 240.0 mg/kg/injection, schedule: Q01DX005 (ip), vehicle: saline
[11] = dose: 60.0 mg/kg/injection, schedule: Q01DX005 (ip), vehicle: saline with Tween-80
[12] = dose: 120.0 mg/kg/injection, schedule: Q01DX005 (ip), vehicle: saline with Tween-80
[13] = dose: 50.0 mg/kg/injection, schedule: Q01DX005 (ip), vehicle: Klucel (hydroxypropylcellulose) (HPC)
[14] = dose: 100.0 mg/kg/injection, schedule: Q01DX005 (ip), vehicle: Klucel (hydroxypropylcellulose) (HPC)
[15] = dose: 200.0 mg/kg/injection, schedule: Q01DX005 (ip), vehicle: Klucel (hydroxypropylcellulose) (HPC)
[16] = dose: 50.0 mg/kg/injection, schedule: Q01DX005 (ip), vehicle: saline with Tween-80
[17] = dose: 12.5 mg/kg/injection, schedule: Q01DX009 (ip), vehicle: saline

Measured: T/C

CC(=O)C1CCC2=C(C1)C(=O)c1cc3c(-c4ccccc4)oc(-c4ccccc4)c3cc1C2=O (stereo not given)
inactive: dose: 7.5 mg/kg/injection, schedule: Q01DX005 (ip), vehicle: Klucel (hydroxypropylcellulose) (HPC) 87 % of control | [1] 94 % of control

CC1(C)CC(=O)c2c(oc3cc4c5c(oc4cc23)CC(C)(C)CC5=O)C1
inactive: dose: 12.5 mg/kg/injection, schedule: Q01DX005 (ip), vehicle: saline with Tween-80 90 % of control | [2] 91 % of control | [3] 87 % of control | [4] 92 % of control

O=C1c2cccc(Cl)c2Cc2c(Cl)cccc21
inactive: dose: 100.0 mg/kg/injection, schedule: Q01DX001 (ip), vehicle: saline with Tween-80 105 % of control | dose: 200.0 mg/kg/injection, schedule: Q01DX001 (ip), vehicle: saline with Tween-80 99 % of control | dose: 400.0 mg/kg/injection, schedule: Q01DX001 (ip), vehicle: saline with Tween-80 92 % of control

c1ccc(-c2c[s+]c(-c3ccccc3)s2)cc1
inactive: dose: 6.25 mg/kg/injection, schedule: Q01DX009 (ip), vehicle: distilled water + Tween-80 117 % of control | dose: 12.5 mg/kg/injection, schedule: Q01DX009 (ip), vehicle: distilled water + Tween-80 100 % of control | dose: 25.0 mg/kg/injection, schedule: Q01DX009 (ip), vehicle: distilled water + Tween-80 90 % of control | dose: 50.0 mg/kg/injection, schedule: Q01DX009 (ip), vehicle: distilled water + Tween-80 99 % of control | dose: 100.0 mg/kg/injection, schedule: Q01DX009 (ip), vehicle: distilled water + Tween-80 97 % of control

Clc1ccc(N2C=Nc3ccc(Cl)cc3C2)cc1
inactive: [5] 100 % of control | [6] 97 % of control | [7] 98 % of control

CN1C2=CCCCC2(C)c2ccccc21 (stereo not given)
inactive: [8] 105 % of control | [9] 115 % of control | [10] 118 % of control

CCCCC1(C2c3ccccc3Oc3ccccc32)C(=O)N(c2ccccc2)N(c2ccccc2)C1=O
inactive: [11] 98 % of control | [12] 93 % of control | dose: 240.0 mg/kg/injection, schedule: Q01DX005 (ip), vehicle: saline with Tween-80 90 % of control

COc1ccc(N=C(C)c2c(O)n(-c3ccccc3)[nH]c2=O)cc1
inactive: [13] 101 % of control | [14] 104 % of control | [15] 99 % of control

Nc1ncnc2c1ncn2C1OC(COC(c2ccccc2)(c2ccccc2)c2ccccc2)C(O)C1O (stereo not given)
inactive: [16] 100 % of control | [3] 95 % of control | [4] 90 % of control

CC(=O)Oc1ccccc1O
inactive: dose: 25.0 mg/kg/injection, schedule: Q01DX009 (ip), vehicle: saline + Tween-80 + alcohol 106 % of control | dose: 50.0 mg/kg/injection, schedule: Q01DX009 (ip), vehicle: saline + Tween-80 + alcohol 101 % of control and 105 % of control and 116 % of control | dose: 100.0 mg/kg/injection, schedule: Q01DX009 (ip), vehicle: saline + Tween-80 + alcohol 109 % of control and 115 % of control

CN=C(C#N)c1ccccc1
inactive: [16] 100 % of control | [3] 98 % of control | [4] 99 % of control

COc1c(C(C)C)cc2c(c1OC)C13CCCC(C)(C)C1C(OC3=O)C2NC(=O)C(C)N(C)C (stereo not given)
inactive: [17] 100 % of control | dose: 25.0 mg/kg/injection, schedule: Q01DX009 (ip), vehicle: saline 98 % of control | dose: 50.0 mg/kg/injection, schedule: Q01DX009 (ip), vehicle: saline 100 % of control

FC(F)(F)c1cc(Cl)nc(Cl)n1
inactive: dose: 6.0 mg/kg/injection, schedule: Q01DX005 (ip), vehicle: saline with Tween-80 106 % of control | dose: 12.0 mg/kg/injection, schedule: Q01DX005 (ip), vehicle: saline with Tween-80 97 % of control | [2] 92 % of control

CCOC(=O)C(=CNc1cc(C(F)(F)F)ccc1N1CCOCC1)C(=O)OCC
inactive: [5] 97 % of control | [6] 100 % of control | [7] 100 % of control

O=c1oc(-c2ccccc2I)ns1
inactive: [6] 113 % of control | [7] 114 % of control | dose: 400.0 mg/kg/injection, schedule: Q01DX009 (ip), vehicle: Klucel (hydroxypropylcellulose) (HPC) 96 % of control

O=C1NC(=O)[C@@]2(CCOc3ccc(F)cc32)N1
inactive: [13] 95 % of control | [14] 100 % of control | [15] 100 % of control

COCCOCn1cccc1Cc1ccc(OC)cc1
inactive: dose: 100.0 mg/kg/injection, schedule: Q01DX001 (ip), vehicle: distilled water + Tween-80 + alcohol 100 % of control | dose: 200.0 mg/kg/injection, schedule: Q01DX001 (ip), vehicle: distilled water + Tween-80 + alcohol 105 % of control | dose: 400.0 mg/kg/injection, schedule: Q01DX001 (ip), vehicle: distilled water + Tween-80 + alcohol 96 % of control

CCCCCCCCCC(=O)c1cc(O)c(C(=O)CCCCCCCCC)cc1O
inactive: dose: 60.0 mg/kg/injection, schedule: Q01DX005 (ip), vehicle: Klucel (hydroxypropylcellulose) (HPC) 103 % of control | dose: 120.0 mg/kg/injection, schedule: Q01DX005 (ip), vehicle: Klucel (hydroxypropylcellulose) (HPC) 104 % of control | dose: 240.0 mg/kg/injection, schedule: Q01DX005 (ip), vehicle: Klucel (hydroxypropylcellulose) (HPC) 105 % of control

O=C([O-])CC(=O)[O-].[Cu+2].[OH3+].[OH3+]
inactive: [1] 99 % of control

COc1ccc(/C=N/Nc2nnc3c4ccccc4c4ccccc4c3n2)cc1
inactive: dose: 50.0 mg/kg/injection, schedule: Q04DX003 (ip), vehicle: saline 89 % of control | dose: 100.0 mg/kg/injection, schedule: Q04DX003 (ip), vehicle: saline 93 % of control | dose: 200.0 mg/kg/injection, schedule: Q04DX003 (ip), vehicle: saline 92 % of control

COP(=O)(O)/C(=N/NS(=O)(=O)c1ccc(C)cc1)c1ccccc1
inactive: dose: 12.5 mg/kg/injection, schedule: Q01DX009 (ip), vehicle: water 96 % of control | dose: 25.0 mg/kg/injection, schedule: Q01DX009 (ip), vehicle: water 96 % of control | dose: 50.0 mg/kg/injection, schedule: Q01DX009 (ip), vehicle: water 93 % of control | dose: 100.0 mg/kg/injection, schedule: Q01DX009 (ip), vehicle: water 98 % of control | dose: 200.0 mg/kg/injection, schedule: Q01DX009 (ip), vehicle: water 98 % of control | dose: 400.0 mg/kg/injection, schedule: Q01DX009 (ip), vehicle: water 97 % of control

CCCC/C(C)=N/NC(=S)SC
inactive: dose: 3.12 mg/kg/injection, schedule: Q01DX009 (ip), vehicle: saline 100 % of control | dose: 6.25 mg/kg/injection, schedule: Q01DX009 (ip), vehicle: saline 106 % of control | [17] 100 % of control

Oc1[nH]c2ccccc2c1N=NC1=NCCN1
inactive: [8] 101 % of control | [9] 104 % of control | [10] 87 % of control

COC(=O)N1N=C(c2ccccc2)C(C(=O)OC)(C(=O)OC)c2ccccc21
inactive: [11] 93 % of control | [12] 87 % of control

O=C1c2ccccc2S(=O)(=O)N1CCN(CCN1C(=O)c2ccccc2S1(=O)=O)c1ccccc1
inactive: [5] 92 % of control | [6] 100 % of control | [7] 100 % of control

COc1ccc(-c2nc3c(=O)[nH]c(=O)n(C)c3nc2-c2ccc(OC)c(OC)c2)cc1OC
inactive: dose: 100.0 mg/kg/injection, schedule: Q04DX002 (ip), vehicle: Klucel (hydroxypropylcellulose) (HPC) 97 % of control | dose: 200.0 mg/kg/injection, schedule: Q04DX002 (ip), vehicle: Klucel (hydroxypropylcellulose) (HPC) 100 % of control | dose: 400.0 mg/kg/injection, schedule: Q04DX002 (ip), vehicle: Klucel (hydroxypropylcellulose) (HPC) 100 % of control

C=CCc1cc(OC)c(OCC(=O)O)c(OC)c1
inactive: dose: 100.0 mg/kg/injection, schedule: Q04DX003 (ip), vehicle: Klucel (hydroxypropylcellulose) (HPC) 98 % of control | dose: 200.0 mg/kg/injection, schedule: Q04DX003 (ip), vehicle: Klucel (hydroxypropylcellulose) (HPC) 109 % of control

COc1cc(C)c(O)c(C/C=C(\C)CC(=O)[C@H]2[C@]3(C)CCC[C@]3(C)[C@@]23C[C@H](O)C(C)(C)O3)c1
inactive: dose: 8.75 mg/kg/injection, schedule: Q01DX005 (ip), vehicle: saline with Tween-80 95 % of control | dose: 17.5 mg/kg/injection, schedule: Q01DX005 (ip), vehicle: saline with Tween-80 92 % of control | dose: 35.0 mg/kg/injection, schedule: Q01DX005 (ip), vehicle: saline with Tween-80 96 % of control
